These results are taken from PubChem BioAssay (NCI).

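Grown in 96-well plates, cells were treated for 48 hours with each compound at five concentrations. Insufficient inhibition: endpoint recorded as highest concentration tested. GI50: concentration for 50% inhibition of growth. TGI is the concentration that stops growth completely.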

Among the test systems are OVCAR-5 ovarian; HCT-15 colon; KM12 colon; SF-539 CNS; LOX IMVI melanoma; OVCAR-4 ovarian; HT29 colon; T-47D breast; MCF7 breast; MDA-MB-231 breast.
Common to all, as to experiment: DTP human tumour cell line panel, 48 h

By TGI is commonly meant the concentration giving total growth inhibition. Low readings indicate more potent growth arrest, high ones less potent growth arrest. For `CC(C)(C)C1CCP(=O)(c2ccccc2)CC1` (stereo not drawn), the concentration for total growth inhibition (TGI) in the experiment on OVCAR-5 ovarian, in the experiment with HCT-15 colon, in the experiment with KM12 colon, in the experiment on SF-539 CNS, in the experiment on LOX IMVI melanoma and in the experiment on OVCAR-4 ovarian was above 100 µM in each case. Further, the TGI in the experiment with HT29 colon was above 100 µM.

Turning to `CC(C)(C)C1CCC(CI)(N=[N+]=[N-])CC1` (stereo not drawn), the concentration for total growth inhibition (TGI) with OVCAR-5 ovarian, in the experiment on HCT-15 colon, in the experiment on KM12 colon, with SF-539 CNS, with OVCAR-4 ovarian and in the experiment with HT29 colon was above 100 µM throughout.

`Cc1ccc(S(=O)(=O)Nc2cccc(C)c2C)cc1`: the TGI in the experiment on OVCAR-5 ovarian, in the experiment with HCT-15 colon, in the experiment on KM12 colon, in the experiment with SF-539 CNS, in the experiment on LOX IMVI melanoma and in the experiment with OVCAR-4 ovarian was above 100 µM in each case. Also, in the experiment with HT29 colon, the TGI is above 100 µM.

Consider `CN(C)CCCNC(=O)c1cccc2nc3ccccc3nc12`, for which the concentration for total growth inhibition (TGI) with OVCAR-5 ovarian is 54.3 µM; in the experiment with HCT-15 colon, above 82.4 µM; with KM12 colon it was 49.9 µM; in the experiment with SF-539 CNS, 54.2 µM; in the experiment with LOX IMVI melanoma, 39.8 µM; in the experiment on OVCAR-4 ovarian it was 47.2 µM. The same molecule gave a TGI in the experiment on HT29 colon of 36.5 µM.

With `COc1ccc(/C=C/c2ccnc3ccccc23)cc1`, the TGI was found to be 37.4 µM with T-47D breast; 36.5 µM in the experiment with OVCAR-5 ovarian; 39.6 µM in the experiment on HCT-15 colon; 30.1 µM in the experiment with KM12 colon; 37.6 µM in the experiment on SF-539 CNS; 31 µM in the experiment on LOX IMVI melanoma. Further, the TGI worked out at 19.9 µM with OVCAR-4 ovarian, 23.1 µM in the experiment on HT29 colon and 31.4 µM in the experiment on MCF7 breast.

As for `CC1=C(C(=O)Nc2cccc(C(F)(F)F)c2)C(c2ccccc2F)C(C(=O)Nc2cccc(C(F)(F)F)c2)=C(C)N1`, the total growth inhibition concentration (TGI) was determined as 24.5 µM in the experiment with OVCAR-5 ovarian; 14.8 µM with KM12 colon; 23.8 µM with SF-539 CNS; 18.3 µM in the experiment on LOX IMVI melanoma; 14 µM in the experiment with OVCAR-4 ovarian; 11.5 µM in the experiment on HT29 colon.

By GI50 is commonly meant the concentration at which growth is held to half of that of the control. On to `O=c1[nH]cc(CO)c(=O)[nH]1`, for which the GI50 in the experiment with MDA-MB-231 breast, in the experiment on T-47D breast, in the experiment on OVCAR-5 ovarian, in the experiment with HCT-15 colon, in the experiment on KM12 colon and in the experiment with SF-539 CNS was above 100 µM each time. For the same molecule, the GI50 in the experiment with LOX IMVI melanoma, in the experiment with HT29 colon and with MCF7 breast was above 100 µM in each case. Besides, the TGI in the experiment on MDA-MB-231 breast, in the experiment with T-47D breast, with OVCAR-5 ovarian, in the experiment on HCT-15 colon, in the experiment on KM12 colon and in the experiment with SF-539 CNS was above 100 µM each time. The TGI in the experiment on LOX IMVI melanoma, in the experiment on HT29 colon and with MCF7 breast was above 100 µM each time.

`Nc1nc2c(c(=O)[nH]1)N=C(COP(=O)(O)OP(=O)(O)O)CN2`: the total growth inhibition concentration (TGI) in the experiment on MDA-MB-231 breast, with T-47D breast, with OVCAR-5 ovarian, in the experiment on HCT-15 colon, in the experiment with KM12 colon and in the experiment with SF-539 CNS was above 100 µM in each case. For the same molecule, the total growth inhibition concentration (TGI) in the experiment on LOX IMVI melanoma, with HT29 colon and in the experiment with MCF7 breast was above 100 µM each time.

Consider `C=C(CS(=O)(=O)c1ccccc1)C(=O)OCC`, for which the TGI in the experiment on OVCAR-5 ovarian came out at 34.8 µM; in the experiment with HCT-15 colon, 35 µM; in the experiment on KM12 colon, 32.6 µM; in the experiment on SF-539 CNS it was 33.2 µM; in the experiment with LOX IMVI melanoma, 24.2 µM; in the experiment on HT29 colon, 23.3 µM.

For `Cc1nn2c(=O)n(-c3cccc(-n4nnc5c(-c6ccccc6)c(C)nn5c4=O)c3C)nnc2c1-c1ccccc1`, the concentration for total growth inhibition (TGI) was above 100 µM in the experiment with OVCAR-5 ovarian; 63.8 µM in the experiment on HCT-15 colon; 64 µM in the experiment on SF-539 CNS; above 100 µM in the experiment on LOX IMVI melanoma; 53.7 µM with OVCAR-4 ovarian; above 100 µM with HT29 colon.

Take `Cc1ccn2c(-c3csc(Nc4cccc(O)c4)n3)c(C)nc2c1`: the GI50 with MDA-MB-231 breast is 0.751 µM; in the experiment on T-47D breast it was 0.878 µM; in the experiment with OVCAR-5 ovarian it was 9.29 µM; with HCT-15 colon, 0.273 µM; with KM12 colon it was 0.273 µM; with SF-539 CNS it was 0.498 µM. For the same molecule, the figures for the GI50 in the experiment with OVCAR-4 ovarian, with HT29 colon and with MCF7 breast were 2.43 µM, 4.13 µM and 0.311 µM, respectively. In addition, the concentration for total growth inhibition (TGI) in the experiment with MDA-MB-231 breast was 11.6 µM; in the experiment on T-47D breast, 10.8 µM; in the experiment with OVCAR-5 ovarian, above 81.2 µM; with HCT-15 colon it was 24 µM; in the experiment with KM12 colon, 16.4 µM; with SF-539 CNS it was 3.75 µM. Moreover, the TGI in the experiment on OVCAR-4 ovarian was determined as 53.2 µM; in the experiment with HT29 colon, 18 µM; with MCF7 breast it was 27.3 µM.

In the case of `COc1cc(-c2ccccc2)c(OC)cc1CCl`, the TGI in the experiment with OVCAR-5 ovarian, with HCT-15 colon, in the experiment on KM12 colon, in the experiment on SF-539 CNS, in the experiment on OVCAR-4 ovarian and with HT29 colon was above 100 µM throughout.

As to `Cc1cn(C2CC(N=[N+]=[N-])C(CO)O2)c(=O)[nH]c1=O` (stereo not drawn), the GI50 was above 1000 µM with MDA-MB-231 breast; above 1000 µM in the experiment with T-47D breast; above 1000 µM in the experiment on OVCAR-5 ovarian; above 1000 µM in the experiment on HCT-15 colon; 472 µM in the experiment on KM12 colon; 532 µM in the experiment on LOX IMVI melanoma. For the same molecule, the GI50 in the experiment on OVCAR-4 ovarian is above 1000 µM; in the experiment with MCF7 breast, 50.1 µM. Besides, the TGI in the experiment with MDA-MB-231 breast, in the experiment with T-47D breast, in the experiment on OVCAR-5 ovarian, in the experiment with HCT-15 colon, in the experiment with KM12 colon and with LOX IMVI melanoma was above 1000 µM each time. The concentration for total growth inhibition (TGI) with OVCAR-4 ovarian, with HT29 colon and in the experiment with MCF7 breast was above 1000 µM each time.

With `O=NNc1ccc(Sc2ccc3ccccc3c2)cn1`, the TGI is above 100 µM in the experiment on MDA-MB-231 breast; 77.9 µM in the experiment on T-47D breast; above 100 µM with OVCAR-5 ovarian; 60 µM with HCT-15 colon; above 100 µM in the experiment with KM12 colon; above 100 µM in the experiment with SF-539 CNS. Further, the TGI in the experiment with OVCAR-4 ovarian, in the experiment with HT29 colon and in the experiment with MCF7 breast was above 100 µM throughout.

Take `CCOc1ccc(/C=N\N2C(=O)c3ccccc3C2=O)cc1`: the TGI with OVCAR-5 ovarian, in the experiment on HCT-15 colon, in the experiment with KM12 colon, in the experiment with SF-539 CNS, with LOX IMVI melanoma and in the experiment on OVCAR-4 ovarian was above 100 µM each time. Moreover, the concentration for total growth inhibition (TGI) in the experiment on HT29 colon was above 100 µM.
